Experimental data taken from PubChem BioAssay AID1745844 (Carcinogenic Potency Database (CPDB), 2022).
Several values for one entry are separate records, joined by “and”; a condition that tells them apart may be missing. Equal entries are not always repeated. Activity calls are given as the source filed them. No rule for the calls is given here.

Test system: rodent lifetime carcinogenesis bioassay, tumor incidence TD50
Assay: chronic cancer bioassays in animals – CPDB, compiled studies (AID 1745844)

In the case of `[O]=[W](=[O])([OH])[OH]`, the carcinogen call (rat, strain Long-Evans BLU:(LE), females, in drinking water, site: any site (literature study), lesion: malignant tumor, dosed 149 weeks, study length 149 weeks) is reported as “negative (inactive)”, the carcinogen call (rat, strain Long-Evans BLU:(LE), females, in drinking water, site: any site (literature study), lesion: several types, types named in the paper, dosed 149 weeks, study length 149 weeks) is reported as “negative (inactive)” and the TD50 (rat, strain Long-Evans BLU:(LE), males, in drinking water, site: any site (literature study), lesion: malignant tumor, dosed 136 weeks, study length 136 weeks) is reported as 87.7 mg/kg/day (inactive). The TD50 (rat, strain Long-Evans BLU:(LE), males, in drinking water, site: any site (literature study), lesion: several types, types named in the paper, dosed 136 weeks, study length 136 weeks) was 40.1 mg/kg/day (inactive).
Work on `C=CCCl` yielded a TD50 (mouse, strain B6C3F1, females, by gavage, site: any site (literature study), lesion: several types, types named in the paper, dosed 78 weeks, study length 91 weeks) of 343 mg/kg/day, a TD50 (mouse, strain B6C3F1, females, by gavage, site: liver, lesion: hepatocellular adenoma + hepatocellular carcinoma + neoplastic nodule, dosed 78 weeks, study length 91 weeks) of 2180 mg/kg/day and a TD50 (mouse, strain B6C3F1, females, by gavage, site: lung, lesion: alveolar/bronchiolar adenoma + alveolar/bronchiolar carcinoma, dosed 78 weeks, study length 91 weeks) of 1250 mg/kg/day. The TD50 (mouse, strain B6C3F1, females, by gavage, site: stomach, lesion: squamous-cell carcinoma + squamous-cell papilloma, dosed 78 weeks, study length 91 weeks) was 706 mg/kg/day, the TD50 (mouse, strain B6C3F1, males, by gavage, site: any site (literature study), lesion: several types, types named in the paper, dosed 67 weeks, study length 91 weeks) was 184 mg/kg/day and the TD50 (mouse, strain B6C3F1, males, by gavage, site: liver, lesion: hepatocellular adenoma + hepatocellular carcinoma + neoplastic nodule, dosed 67 weeks, study length 91 weeks) was 457 mg/kg/day. It also gave a TD50 (mouse, strain B6C3F1, males, by gavage, site: stomach, lesion: squamous-cell carcinoma + squamous-cell papilloma, dosed 67 weeks, study length 91 weeks) of 727 mg/kg/day, a TD50 (rat, strain Osborne-Mendel, females, by gavage, site: any site (literature study), lesion: several types, types named in the paper, dosed 78 weeks, study length 110 weeks) of 35.2 mg/kg/day and a TD50 (rat, strain Osborne-Mendel, males, by gavage, site: any site (literature study), lesion: several types, types named in the paper, dosed 78 weeks, study length 110 weeks) of 28.1 mg/kg/day.
For `Cc1cc(C)c(N=Nc2c(O)c(S(=O)(=O)O)cc3cc(S(=O)(=O)O)ccc23)cc1C`, the TD50 (rat, strain Bethesda black, both sexes, in feed, site: liver, lesion: carcinoma, dosed 104 weeks, study length 104 weeks) was 2480 mg/kg/day, the TD50 (rat, strain Bethesda black, both sexes, in feed, site: liver, lesion: hepatocellular tumor, benign, dosed 104 weeks, study length 104 weeks) was 3540 mg/kg/day and the TD50 (rat, strain Bethesda black, both sexes, in feed, site: liver, lesion: nodular hyperplasia, dosed 104 weeks, study length 104 weeks) was 3040 mg/kg/day. The TD50 (rat, strain Bethesda black, both sexes, in feed, site: liver, lesion: several types, types named in the paper, dosed 104 weeks, study length 104 weeks) was 746 mg/kg/day, the TD50 (rat, strain Not specified, females, in feed, site: bile duct, lesion: adenoma, dosed 65 weeks, study length 65 weeks) was 1570 mg/kg/day and the TD50 (rat, strain Not specified, females, in feed, site: liver, lesion: carcinoma, dosed 65 weeks, study length 65 weeks) was 1990 mg/kg/day. The TD50 (rat, strain Not specified, males, in feed, site: bile duct, lesion: adenoma, dosed 65 weeks, study length 65 weeks) was 755 mg/kg/day, the TD50 (rat, strain Not specified, males, in feed, site: liver, lesion: carcinoma, dosed 65 weeks, study length 65 weeks) was 1240 mg/kg/day and the TD50 (rat, strain Osborne-Mendel, both sexes, in feed, site: any site (literature study), lesion: malignant tumor, dosed 104 weeks, study length 104 weeks) was 12900 mg/kg/day. The TD50 (rat, strain Osborne-Mendel, both sexes, in feed, site: liver, lesion: carcinoma, dosed 104 weeks, study length 104 weeks) was 7540 mg/kg/day, the TD50 (rat, strain Osborne-Mendel, both sexes, in feed, site: liver, lesion: hepatocellular tumor, benign, dosed 104 weeks, study length 104 weeks) was 909 mg/kg/day and the TD50 (rat, strain Osborne-Mendel, both sexes, in feed, site: liver, lesion: nodular hyperplasia, dosed 104 weeks, study length 104 weeks) was 639 mg/kg/day. The TD50 (rat, strain Wistar, both sexes, in feed, site: liver, lesion: one or several types, types not named, dosed 65 weeks, study length 65 weeks) was 225 mg/kg/day and 394 mg/kg/day and the TD50 (rat, strain Wistar, both sexes, in feed, site: liver, lesion: one or several types, types not named, dosed 70 weeks, study length 70 weeks) was 314 mg/kg/day and 420 mg/kg/day.
With `NC(=O)N(CC(=O)O)N=O` the TD50 (rat, strain Donryu, females, in drinking water, site: any site (literature study), lesion: several types, types named in the paper, dosed 68 weeks, study length 68 weeks) was 1.38 mg/kg/day, the TD50 (rat, strain Donryu, females, in drinking water, site: intestine, lesion: several types, types named in the paper, dosed 68 weeks, study length 68 weeks) was 5.37 mg/kg/day and the TD50 (rat, strain Donryu, females, in drinking water, site: mammary gland, lesion: fibroadenoma, dosed 68 weeks, study length 68 weeks) was 2.92 mg/kg/day. The TD50 (rat, strain Donryu, females, in drinking water, site: mammary gland, lesion: several types, types named in the paper, dosed 68 weeks, study length 68 weeks) was 2.3 mg/kg/day, the TD50 (rat, strain Donryu, females, in drinking water, site: small intestine, lesion: adenocarcinoma, dosed 68 weeks, study length 68 weeks) was 11.6 mg/kg/day and the TD50 (rat, strain Donryu, females, in drinking water, site: small intestine, lesion: adenoma, dosed 68 weeks, study length 68 weeks) was 8.09 mg/kg/day. The TD50 (rat, strain MRC-Wistar, males, in drinking water, site: any site (literature study), lesion: several types, types named in the paper, dosed 74 weeks, study length 130 weeks) was 13.1 mg/kg/day and the TD50 (rat, strain MRC-Wistar, males, in drinking water, site: epidermis, lesion: several types, types named in the paper, dosed 74 weeks, study length 130 weeks) was 34.8 mg/kg/day.
`CCCCN(N)CCCC` was tested, and the TD50 (mouse, strain Swiss albino, females, in drinking water, site: forestomach, lesion: several types, types named in the paper, dosed 109 weeks, study length 109 weeks) was 71.5 mg/kg/day, the TD50 (mouse, strain Swiss albino, females, in drinking water, site: forestomach, lesion: squamous-cell carcinoma, dosed 109 weeks, study length 109 weeks) was 152 mg/kg/day and the TD50 (mouse, strain Swiss albino, females, in drinking water, site: forestomach, lesion: squamous-cell papilloma, dosed 109 weeks, study length 109 weeks) was 95.9 mg/kg/day. For the same compound, the carcinogen call (mouse, strain Swiss albino, females, in drinking water, site: liver, lesion: angioma, dosed 109 weeks, study length 109 weeks) was “negative (inactive)”, the TD50 (mouse, strain Swiss albino, females, in drinking water, site: lung, lesion: adenocarcinoma, dosed 109 weeks, study length 109 weeks) was 133 mg/kg/day and the TD50 (mouse, strain Swiss albino, females, in drinking water, site: lung, lesion: adenoma, dosed 109 weeks, study length 109 weeks) was 51.5 mg/kg/day. It also gave a TD50 (mouse, strain Swiss albino, females, in drinking water, site: lung, lesion: several types, types named in the paper, dosed 109 weeks, study length 109 weeks) of 55.5 mg/kg/day, a TD50 (mouse, strain Swiss albino, males, in drinking water, site: forestomach, lesion: several types, types named in the paper, dosed 109 weeks, study length 109 weeks) of 84.2 mg/kg/day and a TD50 (mouse, strain Swiss albino, males, in drinking water, site: forestomach, lesion: squamous-cell carcinoma, dosed 109 weeks, study length 109 weeks) of 317 mg/kg/day. It also gave a TD50 (mouse, strain Swiss albino, males, in drinking water, site: forestomach, lesion: squamous-cell papilloma, dosed 109 weeks, study length 109 weeks) of 109 mg/kg/day, a TD50 (mouse, strain Swiss albino, males, in drinking water, site: liver, lesion: hepatoma, benign, dosed 109 weeks, study length 109 weeks) of 189 mg/kg/day and a TD50 (mouse, strain Swiss albino, males, in drinking water, site: liver, lesion: several types, types named in the paper, dosed 109 weeks, study length 109 weeks) of 105 mg/kg/day. The TD50 (mouse, strain Swiss albino, males, in drinking water, site: lung, lesion: adenocarcinoma, dosed 109 weeks, study length 109 weeks) was 82.3 mg/kg/day, the TD50 (mouse, strain Swiss albino, males, in drinking water, site: lung, lesion: adenoma, dosed 109 weeks, study length 109 weeks) was 44.9 mg/kg/day and the TD50 (mouse, strain Swiss albino, males, in drinking water, site: lung, lesion: several types, types named in the paper, dosed 109 weeks, study length 109 weeks) was 38.1 mg/kg/day.
With `c1ccc2[nH]c(-c3cscn3)nc2c1` the TD50 (mouse, strain B6C3F1, males, in feed, site: liver, lesion: hepatocellular adenoma, dosed 52 weeks, study length 52 weeks) was 390 mg/kg/day (inactive), the carcinogen call (mouse, strain Crj: CD-1 (ICR), females, in feed, site: liver, lesion: one or several types, types not named, dosed 78 weeks, study length 78 weeks) was “negative (inactive)” and the TD50 (mouse, strain Crj: CD-1 (ICR), females, in feed, site: lung, lesion: alveolar/bronchiolar adenoma, dosed 78 weeks, study length 78 weeks) was 4880 mg/kg/day (inactive). For the same compound, the carcinogen call (mouse, strain Crj: CD-1 (ICR), females, in feed, site: lung, lesion: alveolar/bronchiolar carcinoma, dosed 78 weeks, study length 78 weeks) was “negative (inactive)”, the TD50 (mouse, strain Crj: CD-1 (ICR), females, in feed, site: urinary bladder, lesion: mesenchymal neoplasm, dosed 78 weeks, study length 78 weeks) was 16300 mg/kg/day (inactive) and the carcinogen call (mouse, strain Crj: CD-1 (ICR), males, in feed, site: liver, lesion: hepatocellular adenoma, dosed 78 weeks, study length 78 weeks) was “negative (inactive)”. The carcinogen call (mouse, strain Crj: CD-1 (ICR), males, in feed, site: liver, lesion: hepatocellular carcinoma, dosed 78 weeks, study length 78 weeks) was “negative (inactive)”, the carcinogen call (mouse, strain Crj: CD-1 (ICR), males, in feed, site: lung, lesion: alveolar/bronchiolar adenoma, dosed 78 weeks, study length 78 weeks) was “negative (inactive)” and the carcinogen call (mouse, strain Crj: CD-1 (ICR), males, in feed, site: lung, lesion: alveolar/bronchiolar carcinoma, dosed 78 weeks, study length 78 weeks) was “negative (inactive)”. For the same compound, the TD50 (mouse, strain Crj: CD-1 (ICR), males, in feed, site: urinary bladder, lesion: transitional-cell papilloma, dosed 78 weeks, study length 78 weeks) was 15000 mg/kg/day (inactive), the carcinogen call (rat, strain F344/DuCrj, females, in feed, site: kidney, lesion: transitional-cell carcinoma, dosed 104 weeks, study length 104 weeks) was “negative (inactive)” and the carcinogen call (rat, strain F344/DuCrj, females, in feed, site: liver, lesion: one or several types, types not named, dosed 104 weeks, study length 104 weeks) was “negative (inactive)”. For the same compound, the TD50 (rat, strain F344/DuCrj, females, in feed, site: urinary bladder, lesion: transitional-cell papilloma, dosed 104 weeks, study length 104 weeks) was 7640 mg/kg/day (inactive), the TD50 (rat, strain F344/DuCrj, males, in feed, site: kidney, lesion: transitional-cell carcinoma, dosed 104 weeks, study length 104 weeks) was 3050 mg/kg/day (inactive) and the carcinogen call (rat, strain F344/DuCrj, males, in feed, site: liver, lesion: one or several types, types not named, dosed 104 weeks, study length 104 weeks) was “negative (inactive)”. For the same compound, the TD50 (rat, strain F344/DuCrj, males, in feed, site: preputial gland, lesion: adenoma, dosed 104 weeks, study length 104 weeks) was 571 mg/kg/day and the carcinogen call (rat, strain F344/DuCrj, males, in feed, site: urinary bladder, lesion: transitional-cell papilloma, dosed 104 weeks, study length 104 weeks) was “negative (inactive)”.
